According to the CheMixHub viscosity set:

Test: xn = mol fraction of the nth substance listed

C=CC#N + CC(=O)N(C)C
303.15 K, 101.3 kPa
Conditions | viscosity [mPa·s]
x1 = 0.0998 | 0.8246
x1 = 0.1982 | 0.7637
x1 = 0.297 | 0.7048
x1 = 0.3941 | 0.6449
x1 = 0.5009 | 0.5797
x1 = 0.5995 | 0.5228
x1 = 0.6984 | 0.4682
x1 = 0.7976 | 0.4132
x1 = 0.9005 | 0.3591

CN(C)c1ccccc1 + CC(=O)O
viscosity [mPa·s], 101 kPa
Conditions | x2 = 0.1008 | x2 = 0.201 | x2 = 0.3424 | x2 = 0.3973 | x2 = 0.4957 | x2 = 0.5978 | x2 = 0.7002 | x2 = 0.7928 | x2 = 0.8476 | x2 = 0.9025
298.15 K | 1.363 | 1.448 | 1.644 | 1.757 | 2.04 | 2.547 | 3.352 | 4.244 | 4.514 | 3.819
318.15 K | 0.9835 | 1.02 | 1.106 | 1.16 | 1.281 | 1.488 | 1.831 | 2.192 | 2.327 | 2.085

C=CC#N + CC(=O)c1ccccc1
308.15 K, 101 kPa
Conditions | viscosity [mPa·s]
x2 = 0.0582 | 0.3608
x2 = 0.1109 | 0.3946
x2 = 0.1957 | 0.4532
x2 = 0.2736 | 0.5132
x2 = 0.3939 | 0.62
x2 = 0.4591 | 0.676
x2 = 0.5681 | 0.7844
x2 = 0.6945 | 0.9222
x2 = 0.7954 | 1.052

CN(C)c1ccccc1 + CC(=O)c1ccccc1
viscosity [mPa·s], 101 kPa
Conditions | 303.15 K | 308.15 K
x1 = 0.0856 | 1.505 | 1.398
x1 = 0.1502 | 1.495 | 1.387
x1 = 0.2141 | 1.48 | 1.376
x1 = 0.2852 | 1.461 | 1.361
x1 = 0.3521 | 1.442 | 1.346
x1 = 0.4201 | 1.42 | 1.328
x1 = 0.5026 | 1.392 | 1.305
x1 = 0.5892 | 1.362 | 1.279
x1 = 0.6625 | 1.335 | 1.254
x1 = 0.7211 | 1.313 | 1.234
x1 = 0.7908 | 1.284 | 1.207
x1 = 0.8625 | 1.253 | 1.177
x1 = 0.9204 | 1.222 | 1.151

CC(C)(C)Br + CC(C)(C)O
viscosity [mPa·s], 101.3 kPa
Conditions | x1 = 0.1003 | x1 = 0.2034 | x1 = 0.3015 | x1 = 0.4024 | x1 = 0.5028 | x1 = 0.6049 | x1 = 0.705 | x1 = 0.7981 | x1 = 0.8958
298.15 K | 2.648 | 1.858 | 1.458 | 1.208 | 1.026 | 0.9136 | 0.8363 | 0.7868 | 0.7483
313.15 K | 1.504 | 1.165 | 0.9832 | 0.8491 | 0.7568 | 0.6855 | 0.6408 | 0.6119 | 0.595

CCCCN(CCCC)CCCC + CC(C)(C)O
viscosity [mPa·s], 101 kPa
Conditions | x2 = 0.0998 | x2 = 0.2 | x2 = 0.3 | x2 = 0.4 | x2 = 0.5001 | x2 = 0.5999 | x2 = 0.7 | x2 = 0.8 | x2 = 0.9006 | x2 = 0.9503
303.15 K | 1.189 | 1.202 | 1.267 | 1.324 | 1.394 | 1.499 | 1.637 | 1.878 | 2.323 | 2.732
308.15 K | 1.083 | 1.108 | 1.145 | 1.189 | 1.242 | 1.323 | 1.43 | 1.598 | 1.91 | 2.204
313.15 K | 0.9915 | 1.009 | 1.037 | 1.072 | 1.112 | 1.172 | 1.251 | 1.376 | 1.599 | 1.809
318.15 K | 0.9113 | 0.9236 | 0.9451 | 0.9707 | 1.003 | 1.048 | 1.104 | 1.197 | 1.356 | 1.514
323.15 K | 0.8405 | 0.8479 | 0.8641 | 0.8824 | 0.908 | 0.9401 | 0.9817 | 1.051 | 1.166 | 1.288

CN(C)c1ccccc1 + CC(C)(C)O
303.15 K, 101 kPa
Conditions | viscosity [mPa·s]
x1 = 0.0534 | 3.315
x1 = 0.1054 | 3.242
x1 = 0.1689 | 3.141
x1 = 0.2256 | 3.041
x1 = 0.2958 | 2.907
x1 = 0.3612 | 2.775
x1 = 0.4502 | 2.587
x1 = 0.5246 | 2.423
x1 = 0.6589 | 2.112
x1 = 0.7421 | 1.908
x1 = 0.8046 | 1.747
x1 = 0.8645 | 1.584
x1 = 0.9472 | 1.34

CN(C)c1ccccc1 + CC(C)=O
viscosity [mPa·s], 101 kPa
Conditions | 303.15 K | 308.15 K
x1 = 0.0782 | 0.409 | 0.374
x1 = 0.1356 | 0.494 | 0.448
x1 = 0.1965 | 0.584 | 0.535
x1 = 0.2551 | 0.668 | 0.614
x1 = 0.3205 | 0.757 | 0.698
x1 = 0.3921 | 0.844 | 0.781
x1 = 0.4724 | 0.925 | 0.857
x1 = 0.5558 | 0.992 | 0.921
x1 = 0.6214 | 1.033 | 0.958
x1 = 0.7086 | 1.072 | 0.995
x1 = 0.7784 | 1.095 | 1.018
x1 = 0.8565 | 1.118 | 1.046
x1 = 0.9221 | 1.138 | 1.069

CCCCN(CCCC)CCCC + CC(C)CC(C)(C)C
viscosity [mPa·s], 101 kPa
Conditions | x1 = 0.1106 | x1 = 0.2474 | x1 = 0.3947 | x1 = 0.4958 | x1 = 0.5982 | x1 = 0.793 | x1 = 0.8938
303.15 K | 0.505 | 0.5839 | 0.6783 | 0.7486 | 0.8256 | 0.9844 | 1.072
313.15 K | 0.4465 | 0.5109 | 0.5884 | 0.6462 | 0.7101 | 0.8423 | 0.9171

CC(=O)CC(C)=O + CC(C)CCO
298.15 K, 101 kPa
Conditions | viscosity [mPa·s]
x1 = 0.1 | 2.622
x1 = 0.2 | 1.997
x1 = 0.3 | 1.558
x1 = 0.4 | 1.26
x1 = 0.5 | 1.063
x1 = 0.6 | 0.933
x1 = 0.7 | 0.844
x1 = 0.8 | 0.778
x1 = 0.9 | 0.729

CC(C)(C)Br + CC(C)CO
viscosity [mPa·s], 101.3 kPa
Conditions | x1 = 0.1028 | x1 = 0.2047 | x1 = 0.3013 | x1 = 0.4041 | x1 = 0.5068 | x1 = 0.6029 | x1 = 0.7033 | x1 = 0.8031 | x1 = 0.905
298.15 K | 2.582 | 2.021 | 1.64 | 1.351 | 1.138 | 0.9943 | 0.8866 | 0.8146 | 0.757
313.15 K | 1.718 | 1.405 | 1.168 | 0.9825 | 0.8486 | 0.7553 | 0.688 | 0.6382 | 0.6044

CN(C)c1ccccc1 + CC(C)CO
303.15 K, 101 kPa
Conditions | viscosity [mPa·s]
x1 = 0.0545 | 2.804
x1 = 0.1056 | 2.755
x1 = 0.1875 | 2.663
x1 = 0.2546 | 2.576
x1 = 0.3526 | 2.434
x1 = 0.4278 | 2.316
x1 = 0.5047 | 2.189
x1 = 0.5869 | 2.044
x1 = 0.6514 | 1.926
x1 = 0.7348 | 1.767
x1 = 0.8025 | 1.628
x1 = 0.8621 | 1.501
x1 = 0.9285 | 1.345
